Laboratory results from PubChem BioAssay (NCI).
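48-hour exposure; five concentrations; linearly interpolated endpoints. GI50 marks 50% less growth. TGI denotes the concentration required for complete inhibition of growth.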

Columns and labels:
Test in all cases: inhibition of tumour cell growth, NCI panel, 48 h
RPMI-8226 leukemia = test system: RPMI-8226 leukemia
CAKI-1 renal = test system: CAKI-1 renal
HL-60(TB) leukemia = test system: HL-60(TB) leukemia
COLO 205 colon = test system: COLO 205 colon
SK-MEL-2 melanoma = test system: SK-MEL-2 melanoma
KM12 colon = test system: KM12 colon
CCRF-CEM leukemia = test system: CCRF-CEM leukemia
DU-145 prostate = test system: DU-145 prostate
SNB-19 CNS = test system: SNB-19 CNS
SK-MEL-5 melanoma = test system: SK-MEL-5 melanoma
K-562 leukemia = test system: K-562 leukemia
HOP-62 NSCLC = test system: HOP-62 NSCLC
MDA-MB-231 breast = test system: MDA-MB-231 breast
SN12C renal = test system: SN12C renal
UO-31 renal = test system: UO-31 renal
MCF7 breast = test system: MCF7 breast
HCT-15 colon = test system: HCT-15 colon
OVCAR-8 ovarian = test system: OVCAR-8 ovarian
OVCAR-4 ovarian = test system: OVCAR-4 ovarian
IGROV1 ovarian = test system: IGROV1 ovarian
OVCAR-5 ovarian = test system: OVCAR-5 ovarian
SK-MEL-28 melanoma = test system: SK-MEL-28 melanoma
NCI-H226 lung = test system: NCI-H226 lung
NCI/ADR-RES ovarian = test system: NCI/ADR-RES ovarian
LOX IMVI melanoma = test system: LOX IMVI melanoma
UACC-257 melanoma = test system: UACC-257 melanoma
MOLT-4 leukemia = test system: MOLT-4 leukemia
SF-539 CNS = test system: SF-539 CNS
ACHN renal = test system: ACHN renal
UACC-62 melanoma = test system: UACC-62 melanoma
HCC-2998 colon = test system: HCC-2998 colon
M14 melanoma = test system: M14 melanoma
HOP-92 NSCLC = test system: HOP-92 NSCLC
SK-OV-3 ovarian = test system: SK-OV-3 ovarian
OVCAR-3 ovarian = test system: OVCAR-3 ovarian
A549 NSCLC = test system: A549 NSCLC
BT-549 breast = test system: BT-549 breast
HS 578T breast = test system: HS 578T breast
TK-10 renal = test system: TK-10 renal
EKVX NSCLC = test system: EKVX NSCLC
SNB-75 CNS = test system: SNB-75 CNS
MDA-MB-435 = test system: MDA-MB-435
786-0 renal = test system: 786-0 renal
MALME-3M melanoma = test system: MALME-3M melanoma
SR leukemia = test system: SR leukemia
NCI-H522 lung = test system: NCI-H522 lung
U251 CNS = test system: U251 CNS
T-47D breast = test system: T-47D breast
HCT-116 colon = test system: HCT-116 colon
NCI-H23 lung = test system: NCI-H23 lung
SF-268 CNS = test system: SF-268 CNS
A498 renal = test system: A498 renal
HT29 colon = test system: HT29 colon
PC-3 prostate = test system: PC-3 prostate
SF-295 CNS = test system: SF-295 CNS
NCI-H460 lung = test system: NCI-H460 lung
SW-620 colon = test system: SW-620 colon

COc1ccc2sc(NC(=O)CCCCCCNC(=O)C(O)(O)C(F)(F)F)nc2c1
GI50 (RPMI-8226 leukemia): 988 nM
TGI (RPMI-8226 leukemia): > 30300 nM
GI50 (CAKI-1 renal): 1830 nM
TGI (CAKI-1 renal): 14700 nM
GI50 (HL-60(TB) leukemia): 1060 nM
TGI (HL-60(TB) leukemia): > 30300 nM
GI50 (COLO 205 colon): 920 nM
TGI (COLO 205 colon): 3650 nM
GI50 (SK-MEL-2 melanoma): 1060 nM
TGI (SK-MEL-2 melanoma): 5200 nM
GI50 (KM12 colon): 1290 nM
TGI (KM12 colon): 7400 nM
GI50 (CCRF-CEM leukemia): 1340 nM
TGI (CCRF-CEM leukemia): > 30300 nM
GI50 (DU-145 prostate): 1010 nM
TGI (DU-145 prostate): 14000 nM
GI50 (SNB-19 CNS): 2470 nM
TGI (SNB-19 CNS): 14700 nM
GI50 (SK-MEL-5 melanoma): 1420 nM
TGI (SK-MEL-5 melanoma): 4870 nM
GI50 (K-562 leukemia): 882 nM
TGI (K-562 leukemia): > 30300 nM
GI50 (HOP-62 NSCLC): 1330 nM
TGI (HOP-62 NSCLC): > 30300 nM
GI50 (MDA-MB-231 breast): 680 nM
TGI (MDA-MB-231 breast): 2240 nM
GI50 (SN12C renal): 2310 nM
TGI (SN12C renal): 19000 nM
GI50 (UO-31 renal): 1120 nM
TGI (UO-31 renal): 5700 nM
GI50 (MCF7 breast): 1750 nM
TGI (MCF7 breast): > 30300 nM
GI50 (HCT-15 colon): 3570 nM
TGI (HCT-15 colon): 10100 nM
GI50 (OVCAR-8 ovarian): 989 nM
TGI (OVCAR-8 ovarian): 6580 nM
GI50 (OVCAR-4 ovarian): 2800 nM
TGI (OVCAR-4 ovarian): > 30300 nM
GI50 (IGROV1 ovarian): 1830 nM
TGI (IGROV1 ovarian): 7730 nM
GI50 (OVCAR-5 ovarian): 912 nM
TGI (OVCAR-5 ovarian): 6260 nM
GI50 (SK-MEL-28 melanoma): 1160 nM
TGI (SK-MEL-28 melanoma): 7950 nM
GI50 (NCI-H226 lung): 4940 nM
TGI (NCI-H226 lung): 22600 nM
GI50 (NCI/ADR-RES ovarian): 2070 nM
TGI (NCI/ADR-RES ovarian): 18500 nM
GI50 (LOX IMVI melanoma): 1380 nM
TGI (LOX IMVI melanoma): 5420 nM
GI50 (UACC-257 melanoma): 1490 nM
TGI (UACC-257 melanoma): 26800 nM
GI50 (MOLT-4 leukemia): 1070 nM
TGI (MOLT-4 leukemia): > 30300 nM
GI50 (SF-539 CNS): 2050 nM
TGI (SF-539 CNS): > 30300 nM
GI50 (ACHN renal): 1180 nM
TGI (ACHN renal): 6580 nM
GI50 (UACC-62 melanoma): 828 nM
TGI (UACC-62 melanoma): 3410 nM
GI50 (HCC-2998 colon): 2150 nM
TGI (HCC-2998 colon): 7560 nM
GI50 (M14 melanoma): 2070 nM
TGI (M14 melanoma): > 30300 nM
GI50 (HOP-92 NSCLC): 649 nM
TGI (HOP-92 NSCLC): 2470 nM
GI50 (SK-OV-3 ovarian): 860 nM
TGI (SK-OV-3 ovarian): 2310 nM
GI50 (OVCAR-3 ovarian): 696 nM
TGI (OVCAR-3 ovarian): 2840 nM
GI50 (A549 NSCLC): 1860 nM
TGI (A549 NSCLC): 18400 nM
GI50 (BT-549 breast): 1500 nM
TGI (BT-549 breast): 18900 nM
GI50 (HS 578T breast): 969 nM
TGI (HS 578T breast): 9910 nM
GI50 (TK-10 renal): 736 nM
TGI (TK-10 renal): > 30300 nM
GI50 (EKVX NSCLC): 2330 nM
TGI (EKVX NSCLC): > 30300 nM
GI50 (SNB-75 CNS): 912 nM
TGI (SNB-75 CNS): > 30300 nM
GI50 (MDA-MB-435): 1030 nM
TGI (MDA-MB-435): 6000 nM
GI50 (786-0 renal): 1080 nM
TGI (786-0 renal): > 30300 nM
GI50 (MALME-3M melanoma): 1040 nM
TGI (MALME-3M melanoma): 12000 nM
GI50 (SR leukemia): 738 nM
TGI (SR leukemia): > 30300 nM
GI50 (NCI-H522 lung): 919 nM
TGI (NCI-H522 lung): 4610 nM
GI50 (U251 CNS): 1040 nM
TGI (U251 CNS): 5270 nM
GI50 (T-47D breast): 879 nM
TGI (T-47D breast): 3020 nM
GI50 (HCT-116 colon): 754 nM
TGI (HCT-116 colon): > 30300 nM
GI50 (NCI-H23 lung): 2830 nM
TGI (NCI-H23 lung): 21700 nM
GI50 (SF-268 CNS): 1480 nM
TGI (SF-268 CNS): 8210 nM
GI50 (A498 renal): 901 nM
TGI (A498 renal): 6470 nM
GI50 (HT29 colon): 912 nM
TGI (HT29 colon): > 30300 nM
GI50 (PC-3 prostate): 1720 nM
TGI (PC-3 prostate): > 30300 nM
GI50 (SF-295 CNS): 1070 nM
TGI (SF-295 CNS): 3410 nM
GI50 (NCI-H460 lung): 877 nM
TGI (NCI-H460 lung): 13500 nM
GI50 (SW-620 colon): 531 nM
TGI (SW-620 colon): 1850 nM
